What was measured:
Format in all cases: functional
[1] = test system: LOX IMVI; test: Cytotoxicity against human LOXIMVI cells assessed as cell growth at 10^-8 M after 48 hrs by SRB assay; details: read-out: Activity
[2] = test system: COLO 205; test: Cytotoxicity against human COLO205 cells assessed as cell growth at 10^-5 M after 48 hrs by SRB assay; details: COLO 205, 48 h, read-out: Activity
[3] = test system: T47D; test: Cytotoxicity against human T47D cells after 48 hrs by SRB assay
[4] = test system: 786-0; test: Cytotoxicity against human 786-0 cells assessed as cell growth at 10^-7 M after 48 hrs by SRB assay; details: 786-0, 48 h, read-out: Activity
[5] = test system: MDA-MB-231; test: Cytotoxicity against human MDA-MB-231 cells assessed as cell growth at 10^-7 M after 48 hrs by SRB assay; details: MDA-MB-231, 48 h, read-out: Activity
[6] = test system: M14; test: Cytotoxicity against human M14 cells assessed as cell growth at 10^-4 M after 48 hrs by SRB assay; details: M14, 48 h, read-out: Activity
[7] = test system: OVCAR-3; test: Cytotoxicity against human OVCAR3 cells assessed as cell growth at 10^-5 M after 48 hrs by SRB assay; details: OVCAR-3, 48 h, read-out: Activity
[8] = test system: SF-268; test: Cytotoxicity against human SF268 cells assessed as cell growth at 10^-5 M after 48 hrs by SRB assay; details: SF-268, 48 h, read-out: Activity
[9] = test system: SK-MEL-2; test: Cytotoxicity against human SK-MEL-2 cells assessed as cell growth at 10^-5 M after 48 hrs by SRB assay; details: SK-MEL-2, 48 h, read-out: Activity
[10] = test system: T47D; test: Cytotoxicity against human T47D cells assessed as cell growth at 10^-5 M after 48 hrs by SRB assay; details: read-out: Activity
[11] = test system: Malme-3M; test: Cytotoxicity against human MALME-3M cells assessed as cell growth at 10^-5 M after 48 hrs by SRB assay; details: read-out: Activity
[12] = test system: K562; test: Cytotoxicity against human K562 cells assessed as cell growth at 10^-5 M after 48 hrs by SRB assay; details: K562, 48 h, read-out: Activity
[13] = Cytotoxicity against human UO31 cells assessed as cell growth at 10^-5 M after 48 hrs by SRB assay; details: UO-31, 48 h, read-out: Activity
[14] = test system: PC-3; test: Cytotoxicity against human PC3 cells assessed as cell growth at 10^-5 M after 48 hrs by SRB assay; details: PC-3, 48 h, read-out: Activity
[15] = test system: SK-OV-3; test: Cytotoxicity against human SKOV3 cells assessed as cell growth at 10^-5 M after 48 hrs by SRB assay; details: SK-OV-3, 48 h, read-out: Activity
[16] = test system: MDA-MB-231; test: Cytotoxicity against human MDA-MB-231 cells assessed as cell growth at 10^-4 M after 48 hrs by SRB assay; details: MDA-MB-231, 48 h, read-out: Activity
[17] = test system: HL-60(TB); test: Cytotoxicity against human HL-60(TB) cells assessed as cell growth at 10^-5 M after 48 hrs by SRB assay; details: HL-60, 48 h, read-out: Activity
[18] = Cytotoxicity against human UACC257 cells assessed as cell growth at 10^-5 M after 48 hrs by SRB assay; details: UACC-257, 48 h, read-out: Activity
[19] = Cytotoxicity against human NCI-ADR-RES cells assessed as cell growth at 10^-6 M after 48 hrs by SRB assay; details: read-out: Activity
[20] = test system: CAKI-1; test: Cytotoxicity against human Caki1 cells assessed as cell growth at 10^-4 M after 48 hrs by SRB assay; details: CAKI-1, 48 h, read-out: Activity
[21] = test system: HCT-15; test: Cytotoxicity against human HCT15 cells assessed as cell growth at 10^-5 M after 48 hrs by SRB assay; details: HCT-15, 48 h, read-out: Activity
[22] = test system: HCC 2998; test: Cytotoxicity against human HCC2998 cells assessed as cell growth at 10^-5 M after 48 hrs by SRB assay; details: HCC 2998, 48 h, read-out: Activity
[23] = test system: CAKI-1; test: Cytotoxicity against human Caki1 cells assessed as cell growth at 10^-5 M after 48 hrs by SRB assay; details: CAKI-1, 48 h, read-out: Activity
[24] = test system: ACHN; test: Cytotoxicity against human ACHN cells after 48 hrs by SRB assay
[25] = test system: HCT-15; test: Cytotoxicity against human HCT15 cells assessed as cell growth at 10^-8 M after 48 hrs by SRB assay; details: HCT-15, 48 h, read-out: Activity
[26] = test system: SF-539; test: Cytotoxicity against human SF539 cells assessed as cell growth at 10^-5 M after 48 hrs by SRB assay; details: SF-539, 48 h, read-out: Activity
[27] = Cytotoxicity against human OVCAR5 cells assessed as cell growth at 10^-5 M after 48 hrs by SRB assay; details: OVCAR-5, 48 h, read-out: Activity
[28] = test system: NCI-H460; test: Cytotoxicity against human NCI-H460 cells assessed as cell growth at 10^-6 M after 48 hrs by SRB assay; details: NCI-H460, 48 h, read-out: Activity
[29] = test system: CCRF-CEM; test: Cytotoxicity against human CCRF-CEM cells assessed as cell growth at 10^-6 M after 48 hrs by SRB assay; details: read-out: Activity
[30] = test system: LOX IMVI; test: Cytotoxicity against human LOXIMVI cells assessed as cell growth at 10^-5 M after 48 hrs by SRB assay; details: read-out: Activity
[31] = test system: SK-MEL-28; test: Cytotoxicity against human SK-MEL-28 cells assessed as cell growth at 10^-5 M after 48 hrs by SRB assay; details: SK-MEL-28, 48 h, read-out: Activity
[32] = test system: UACC-62; test: Cytotoxicity against human UACC62 cells assessed as cell growth at 10^-5 M after 48 hrs by SRB assay; details: UACC-62, 48 h, read-out: Activity
[33] = test system: SK-MEL-5; test: Cytotoxicity against human SK-MEL-5 cells assessed as cell growth at 10^-5 M after 48 hrs by SRB assay; details: SK-MEL-5, 48 h, read-out: Activity
[34] = test system: NCI-H322M; test: Cytotoxicity against human NCI-H322M cells assessed as cell growth at 10^-7 M after 48 hrs by SRB assay; details: read-out: Activity
[35] = test system: HL-60(TB); test: Cytotoxicity against human HL-60(TB) cells after 48 hrs by SRB assay; details: HL-60, 48 h
[36] = test system: HCC 2998; test: Cytotoxicity against human HCC2998 cells assessed as cell growth at 10^-4 M after 48 hrs by SRB assay; details: HCC 2998, 48 h, read-out: Activity
[37] = test system: SF-295; test: Cytotoxicity against human SF295 cells assessed as cell growth at 10^-6 M after 48 hrs by SRB assay; details: SF-295, 48 h, read-out: Activity
[38] = test system: 786-0; test: Cytotoxicity against human 786-0 cells assessed as cell growth at 10^-5 M after 48 hrs by SRB assay; details: 786-0, 48 h, read-out: Activity
[39] = test system: HOP-92; test: Cytotoxicity against human HOP92 cells assessed as growth inhibition at 10 uM after 48 hrs by SRB assay; details: HOP-92, 48 h, read-out: GI

Structure (SMILES): C=CCn1c(C)nc2ccc(Nc3nc(Nc4ccc(F)cc4)nc4ccccc34)cc21
- growth at 0.01 µM [1]: 97%
- growth at 10 µM [2]: -91%
- GI50 [3]: 1.7 µM
- LC50 [3]: > 100 µM
- TGI [3]: 4.23 µM
- growth at 0.1 µM [4]: 98%
- growth at 0.1 µM [5]: 98%
- growth at 100 µM [6]: -44%
- growth at 10 µM [7]: 30%
- growth at 10 µM [8]: 47%
- growth at 10 µM [9]: 4%
- growth at 10 µM [10]: -47%
- growth at 10 µM [11]: 63%
- growth at 10 µM [12]: 3%
- growth at 10 µM [13]: 33%
- growth at 10 µM [14]: 16%
- growth at 10 µM [15]: -74%
- growth at 100 µM [16]: -37%
- growth at 10 µM [17]: 26%
- growth at 10 µM [18]: 66%
- growth at 1 µM [19]: 96%
- growth at 100 µM [20]: -53%
- growth at 10 µM [21]: 1%
- growth at 10 µM [22]: 47%
- growth at 10 µM [23]: 42%
- GI50 [24]: 1.99 µM
- LC50 [24]: 9.33 µM
- TGI [24]: 4.31 µM
- growth at 0.01 µM [25]: 99%
- growth at 10 µM [26]: 64%
- growth at 10 µM [27]: 59%
- growth at 1 µM [28]: 88%
- growth at 1 µM [29]: 94%
- growth at 10 µM [30]: 24%
- growth at 10 µM [31]: -91%
- growth at 10 µM [32]: -69%
- growth at 10 µM [33]: -100%
- growth at 0.1 µM [34]: 96%
- GI50 [35]: 4.95 µM
- LC50 [35]: > 100 µM
- TGI [35]: 23.3 µM
- growth at 100 µM [36]: -80%
- growth at 1 µM [37]: 91%
- growth at 10 µM [38]: 43%

Structure (SMILES): C=CCn1c(C)nc2cc(Nc3nc(NCCO)nc4ccccc34)ccc21
- growth at 10 µM [2]: 41.9%
- inhibition of growth at 10 µM [39]: 40%
- growth at 10 µM [7]: 94.8%
- growth at 10 µM [8]: 90.9%
- growth at 10 µM [9]: 102%
- growth at 10 µM [10]: 69%
- growth at 10 µM [11]: 98.6%
- growth at 10 µM [12]: 64.1%
- growth at 10 µM [13]: 72.4%
- growth at 10 µM [14]: 69.2%
- growth at 10 µM [15]: 103%
- growth at 10 µM [17]: 93.8%
- growth at 10 µM [18]: 97.7%
- growth at 10 µM [21]: 105%
- growth at 10 µM [22]: 89%
- growth at 10 µM [23]: 93%
- growth at 10 µM [26]: 94.8%
- growth at 10 µM [27]: 92.2%
- growth at 10 µM [30]: 85.6%
- growth at 10 µM [31]: 101%
- growth at 10 µM [32]: 85.5%
- growth at 10 µM [33]: 75.4%
- growth at 10 µM [38]: 89.1%
